Laboratory results taken from PMC9881673, “Investigating the potential anticancer activities of antibiotics as topoisomerase II inhibitors and DNA intercalators: in vitro, molecular docking, molecular dynamics, and SAR studies” (Journal of Enzyme Inhibition and Medicinal Chemistry, 2023).

Assays:
[1] = MTT antiproliferative assay, HepG-2; assay type: cell-based; conditions: human, HepG-2 hepatocellular carcinoma cells, HepG-2, MTT, read-out: IC50 (cytotoxicity)
Method: (§1) DOX was used as standard (920 µM).

[2] = MTT antiproliferative assay, HCT-116; assay type: cell-based; conditions: human, HCT-116 colorectal carcinoma cells, HCT-116, MTT, read-out: IC50 (cytotoxicity)
Method: as §1

TOP-2 enzyme = target: T1, TOP-2 enzyme (Homo sapiens, UniProt P11388); assay: Topoisomerase II inhibitory assay (TopoGEN plasmid-based kit, DNA decatenation); assay type: biochemical; conditions: decatenation of DNA by TOP-2; read-out: IC50 (TOP-2 inhibition)
T1 construct: purchased TOPOGEN, CO, USA TG1001
T1 sequence (P11388 whole entry): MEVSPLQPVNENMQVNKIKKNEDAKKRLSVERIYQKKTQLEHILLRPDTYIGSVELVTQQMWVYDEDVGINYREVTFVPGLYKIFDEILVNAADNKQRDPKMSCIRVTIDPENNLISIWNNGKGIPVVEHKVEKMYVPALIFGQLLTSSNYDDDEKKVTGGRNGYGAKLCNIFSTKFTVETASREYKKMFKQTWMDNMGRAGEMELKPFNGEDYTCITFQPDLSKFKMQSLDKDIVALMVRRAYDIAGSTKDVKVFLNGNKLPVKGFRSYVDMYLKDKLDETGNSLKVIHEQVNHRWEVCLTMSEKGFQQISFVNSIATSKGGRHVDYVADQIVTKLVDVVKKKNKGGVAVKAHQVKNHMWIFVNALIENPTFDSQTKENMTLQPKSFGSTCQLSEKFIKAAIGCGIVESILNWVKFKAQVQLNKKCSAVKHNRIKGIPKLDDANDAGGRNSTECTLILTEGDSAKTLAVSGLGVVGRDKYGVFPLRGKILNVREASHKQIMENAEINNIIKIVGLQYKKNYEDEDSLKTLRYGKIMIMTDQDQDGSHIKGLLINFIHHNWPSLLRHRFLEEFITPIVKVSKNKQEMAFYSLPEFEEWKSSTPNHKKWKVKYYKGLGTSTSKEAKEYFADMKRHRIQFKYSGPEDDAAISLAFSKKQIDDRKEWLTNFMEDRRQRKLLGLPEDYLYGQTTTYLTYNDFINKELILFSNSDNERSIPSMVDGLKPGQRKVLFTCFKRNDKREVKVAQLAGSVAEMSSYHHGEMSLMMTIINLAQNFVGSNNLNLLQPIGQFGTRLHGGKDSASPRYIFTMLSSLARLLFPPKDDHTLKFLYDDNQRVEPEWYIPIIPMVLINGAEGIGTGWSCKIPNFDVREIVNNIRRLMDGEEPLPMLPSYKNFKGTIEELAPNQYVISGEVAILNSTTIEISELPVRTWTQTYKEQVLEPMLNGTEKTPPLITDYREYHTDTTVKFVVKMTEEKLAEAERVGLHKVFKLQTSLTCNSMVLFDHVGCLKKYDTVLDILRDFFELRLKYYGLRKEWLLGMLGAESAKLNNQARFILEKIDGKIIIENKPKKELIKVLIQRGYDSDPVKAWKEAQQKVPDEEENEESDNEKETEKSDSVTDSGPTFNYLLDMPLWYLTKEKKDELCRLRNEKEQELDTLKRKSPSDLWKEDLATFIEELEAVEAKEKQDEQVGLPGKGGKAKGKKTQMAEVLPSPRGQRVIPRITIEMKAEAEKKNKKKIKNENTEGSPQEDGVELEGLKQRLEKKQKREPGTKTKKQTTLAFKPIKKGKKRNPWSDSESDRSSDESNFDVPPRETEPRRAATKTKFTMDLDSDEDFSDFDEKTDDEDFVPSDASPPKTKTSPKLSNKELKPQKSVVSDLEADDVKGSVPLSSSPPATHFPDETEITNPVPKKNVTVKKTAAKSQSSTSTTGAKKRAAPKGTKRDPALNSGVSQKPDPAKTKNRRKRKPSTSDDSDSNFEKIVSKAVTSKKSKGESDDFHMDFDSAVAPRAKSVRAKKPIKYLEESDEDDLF
Method: SP, RO, AZ, CL, and ER (as ethyl succinate) were provided from NODQCAR at a purity > 99.87%. Human mammary tumours, hepatocellular carcinoma (HepG2), and colorectal cancer (HCT-116) cell lines were obtained from VACSERA; Egypt. RPMI 1640 doped with 10% FBS was provided from VACSERA; Egypt. The inhibitory potential against TOP-2 was assessed by the Topo GEN assay kit (TOPOGEN, CO, USA).
Results were reported as IC50 and compared to DOX.

in vitro = conditions: human, MCF-7 breast cancer cells

Row | IC50 (TOP-2 enzyme) | IC50 at 24 h (in vitro) | SMILES | IC50 at 24 h [1] | IC50 at 24 h [2]
1 | 25.6 ± 1.08 µM | 1.39 ± 0.15 µM | CC[C@H]1OC(=O)[C@H](C)[C@@H](O[C@H]2C[C@@](C)(OC)[C@@H](O)[C@H](C)O2)[C@H](C)[C@@H](O[C@@H]2O[C@H](C)C[C@H](N(C)C)[C@H]2O)[C@](C)(OC)C[C@@H](C)C(=O)[C@H](C)[C@@H](O)[C@]1(C)O [CL, clarithromycin] | 14.8 ± 0.15 µM | 2.74 ± 0.42 µM
2 | 11.6 ± 0.7 µM |  | CC[C@H]1OC(=O)[C@H](C)[C@@H](O[C@H]2C[C@@](C)(OC)[C@@H](O)[C@H](C)O2)[C@H](C)[C@@H](O[C@@H]2O[C@H](C)C[C@H](N(C)C)[C@H]2O)[C@](C)(O)C[C@@H](C)C(=O)[C@H](C)[C@@H](O)[C@]1(C)O [ER, erythromycin] |  | 

The remaining lines, values behind:

Row | SMILES | IC50 (TOP-2 enzyme) | IC50 at 24 h (in vitro) | IC50 at 24 h [1] | IC50 at 24 h [2]
3 | CC[C@H]1OC(=O)[C@H](C)[C@@H](O[C@H]2C[C@@](C)(OC)[C@@H](O)[C@H](C)O2)[C@H](C)[C@@H](O[C@@H]2O[C@H](C)C[C@H](N(C)C)[C@H]2O)[C@](C)(O)C[C@@H](C)CN(C)[C@H](C)[C@@H](O)[C@]1(C)O [AZ, azithromycin] | 36.1 ± 2.11 µM |  | 32 ± 0.18 µM | 2.08 ± 0.05 µM
4 | COc1cccc2c1C(=O)c1c(O)c3c(c(O)c1C2=O)C[C@@](O)(C(=O)CO)C[C@@H]3O[C@H]1C[C@H](N)[C@H](O)[C@H](C)O1 [DOX, doxorubicin] | 6.37 ± 0.38 µM | 0.49 ± 0.1 µM | 3.6 ± 0.07 µM | 1.6 ± 0.05 µM
5 | CC[C@H]1OC(=O)[C@H](C)[C@@H](O[C@H]2C[C@@](C)(OC)[C@@H](O)[C@H](C)O2)[C@H](C)[C@@H](O[C@@H]2O[C@H](C)C[C@H](N(C)C)[C@H]2O)[C@](C)(O)C[C@@H](C)/C(=N\OCOCCOC)[C@H](C)[C@@H](O)[C@]1(C)O [RO, roxithromycin] | 13.1 ± 0.77 µM | 7.9 ± 0.79 µM | 32 ± 0.18 µM | 0.097 ± 0.024 µM
6 | COC1C(O)CC(=O)OC(C)CC=CC=CC(OC2CCC(N(C)C)C(C)O2)C(C)CC(CC=O)C1OC1OC(C)C(OC2CC(C)(O)C(O)C(C)O2)C(N(C)C)C1O (centres unmarked) [SP, spiramycin] | 21.2 ± 1.19 µM | 0.67 ± 0.43 µM | 20.9 ± 1.33 µM | 12.2 ± 3.27 µM
